Data taken from patent publication US5085993A, “Coenzyme-independent L-sorbosone dehydrogenase from Pseudomonas putida” (Hoffmann-La Roche Inc., priority 1987, dated 1992).
Where two headings read alike, the source gives them in different places.

Columns and labels:
[1] = system: coenzyme independent L-sorbosone dehydrogenase of P. putida ATCC 21812; assay: Effect of addition of PQQ on the enzyme activity; type: biochemical, Pseudomonas putida ATCC 21812; details: 0 PQQ = 100
From the text: Significant increase of the enzyme activity was observed by the addition of PQQ.

[2] = system: coenzyme independent L-sorbosone dehydrogenase of P. putida ATCC 21812
Method: Enzyme assay was carried out at 25° C. by measuring the decrease of absorbance at 600 nm of DCIP spectrophotometrically. One unit of enzyme activity was defined as the amount of enzyme which catalyzed the reduction of 1 μmole of DCIP per minute. The extinction coefficient of DCIP at pH 7.0 was taken as 9.45 mM^-1.
The basal reaction mixture was prepared by mixing 6 ml of 0.1M potassium phosphate buffer (pH 7.0) containing 0.3% Triton X-100, 0.45 ml of 2.5 mM DCIP and 10.35 ml of water. A cuvette with 1 cm light path contained 0.4 ml of basal reaction mixture, 20 μl of 10 mM phenazine methosulfate, 10 μl of enzyme solution and 20 μl of 110 mM L-sorbosone solution. A reference cuvette contained all the reagents except enzyme solution, but 10 μl of water was added instead. The reaction was started by the addition of the substrate.

[3] = system: coenzyme independent L-sorbosone dehydrogenase from P. putida ATCC 21812; assay: Measurement of the Km value (DCIP/phenazine methosulfate enzyme assay); type: biochemical, Pseudomonas putida ATCC 21812; details: DCIP and phenazine methosulfate as electron acceptors; 25° C., pH 7.0; read-out: apparent Michaelis constant (Km) for L-sorbosone
Method: In the procedure described under 1) above, the velocities of oxidizing reactions with varying concentrations of L-sorbosone were measured to determine the apparent Michaelis constant (Km) for L-sorbosone. Km value was calculated to be 13±2 mM with DCIP and phenazine methosulfate as electron acceptors.

Compound `O=C(O)c1cc(C(=O)O)c2c(n1)C(=O)C(=O)c1cc(C(=O)O)[nH]c1-2` [PQQ, pyrroloquinoline quinone] has a Relative enzyme activity ([1]; PQQ concentration 0.1 (Micro Moles)) of 106, a Relative enzyme activity ([1]; PQQ concentration 0.2 (Micro Moles), 0.2 µM) of 142 and a Relative enzyme activity ([1]; PQQ concentration 0.5 (Micro Moles), 0.5 µM) of 150. For the same compound, the Relative enzyme activity ([1]; PQQ concentration 0.9 (Micro Moles), 0.9 µM) was 158, the Relative enzyme activity ([1]; PQQ concentration 6.0 (Micro Moles), 6 µM) was 174 and the Relative enzyme activity ([1]; PQQ concentration 15.0 (Micro Moles), 15 µM) was 192.
`O=C(O)CI` [ICH2 COOH, monoiodoacetate] was tested, and the “Relative activity (%)” value [2] was 88.6%.
`O=CC(=O)[C@@H](O)[C@H](O)[C@@H](O)CO` [L-sorbosone] was tested, and the Km [3] was 13 ± 2 mM.
`[N-]=[N+]=[N-].[Na+]` [NaN3, Sodium azide] was tested, and the “Relative activity (%)” value ([2]; inhibitor 25.0 mM, None = 100.0) was 77.3%.
